Assay results taken from patent US5935997A, “O-thiocarbamoyl-aminoalkanol compounds, their pharmaceutically useful salts and process for preparing the same” (Yukong Limited, priority 1998, dated 1999).

Key:
mice (CD-1 strain) = test: Forced Swimming Test (antidepressant; reduction of immobility); assay type: in vivo; conditions: one hour prior to immersion, immobility in 15 min
Method: The therapeutic use of the compounds claimed in the present invention as antidepressants has been proven by the "Forced Swinuning Test", a well known pharmacological screening methods for depression and the results are shown in the following Table II. The procedure described by Porsolt et al., […] was used. Test compound was administered p.o. and i.p. to mice (CD-1 strain), one hour prior to the animals being immersed in a 1500 mL glass beaker (16.5 cm deep, 13.0 cm diameter) filled with water (20~23° C.) to about 5 cm from the top. Mice were kept in the water for a period of 15 minutes and the duration of immobility observed within the 15-minute test period was recorded. A mouse was judged to be immobile if it floated motionlessly in the water making only those movements necessary to keep its head above the water.

mice (CD-1strain) = test: Maximal ElectroShock (MES) test (anticonvulsant); assay type: in vivo; conditions: for ED50: Mus musculus; for MES (animals protected/tested): 30 mg/kg

## CNC(=S)OCC(Cc1ccccc1)N(C)C (stereo not drawn) [drawing 26]
Mice (CD-1 strain); i.p. (30 mg/kg)
  Inhibition (reduction, %): 31.4%
Mice (CD-1 strain); p.o. (30 mg/kg)
  Inhibition (reduction, %): 23.4%

## NC(=S)OCC(N)Cc1ccc(Cl)cc1 (stereo not drawn)
Mice (CD-1 strain); i.p. (30 mg/kg)
  Inhibition (reduction, %): 30.6%
Mice (CD-1 strain); p.o. (30 mg/kg)
  Inhibition (reduction, %): 38.1%

## NC(=S)OC[C@H](N)Cc1ccccc1 [drawing 29]
Mice (CD-1strain); ip, 0.5 h
  ED50: 29 mg/kg
Mice (CD-1strain); po, 0.5 h
  ED50: 189 mg/kg

## CN(C)C(=S)OC[C@H](N)Cc1ccc(Cl)c(Cl)c1
Mice (CD-1strain); ip, 4.0 h
  MES (animals protected/tested): 1/3

## CNC(=S)OC[C@H](N)Cc1ccccc1
Mice (CD-1strain); po, 0.5 h
  MES (animals protected/tested): 3/3

## NC(=S)OC[C@H](N)Cc1ccccc1 [drawing 22]
Mice (CD-1 strain); i.p. (30 mg/kg)
  Inhibition (reduction, %): 41.6%

## NC(=S)OC[C@@H](N)Cc1ccccc1
Mice (CD-1 strain); i.p. (30 mg/kg)
  Inhibition (reduction, %): 51.2%

## CNC(=S)OCC(Cc1ccccc1)N(C)C (stereo not drawn) [drawing 33]
Mice (CD-1strain); ip, 1 h
  ED50: 31.5 mg/kg
Mice (CD-1strain); po, 0.5 h
  ED50: 82.5 mg/kg
